{
  "source": "patent US11155668B2",
  "about": "“Contact-killing, QAC functionalized thermoplastic polyurethane for catheter applications” (THE UNIVERSITY OF AKRON, priority 2017, dated 2021)",
  "test_system": "E. coli",
  "experiment": "Contact-killing assay (adapted from ISO 22196) on allyl-TPU blade-coated samples modified with Qx-SH",
  "type": "cell-based, Escherichia coli (ATCC 25922)",
  "conditions": "for log reduction in E. coli compared to the negative control / reduction in E. coli compared to the negative control: 24 h contact-killing assay; for Mean CFU/Sample Recovered, E. coli: n = 2, negative control polypropylene 2.04 (±0.06) × 10^6",
  "procedure": "To functionalize the allyl-TPU blade-coated samples with Qx-SH reagents, thiol-ene reactions were performed using the same procedure described for rhodamine-SH. Briefly, blade-coated films of allyl-TPU (250 μm thick, 2.0 cm diameter, ca. 110 mg, 20 μmol allyl) were submerged in 2 mL of an Ar purged (30 min) aqueous solution containing Qx-SH (10.0 mM) and LAP (5.0 mM), and allowed to pre-soak for 30 min under Ar. UV-treated samples were irradiated for 30 min (λ=365 nm, I=1.2 mW·cm^−2) while phys. ads. samples were kept in the absence of UV light for 30 min to control for any antimicrobial activity that is contributed by non-covalently attached QAC. Following treatment, the dye/photoinitiator solutions were drawn up and discarded, and the samples were rinsed with 5 mL of DI water (3×) then submerged in 5 mL of DI water. The samples were further rinsed with 10% EtOH (3×) and soaked in 10% EtOH for 15 min (3×), rinsing with 10% EtOH in between each soak.\nFor antimicrobial testing, blade-coated samples and catheter tubing of allyl-TPU were sterilized by EtO sterilization using an Anprolene benchtop sterilizer (Anderson Products, Inc., Haw River, N.C.) following the manufacturer's protocol to deliver approximately 0.5 cc·L^−1 of EtO gas over a 12 h sterilization cycle at 35% humidity and room temperature, followed by a 48 h purge under vacuum. The bacterial strains used in this study included Staphylococcus epidermidis (ATCC 12228), Staphylococcus aureus (25923), Escherichia coli (ATCC 25922), Pseudomonas aeruginosa (ATCC 27853), Enterococcus faecalis (ATCC 29212), and methicillin-resistant Staphylococcus aureus (MRSA) (ATCC BAA-41).\nThe contact-killing assay was performed on physically adsorbed (phys. ads.), and UV-treated blade-coated samples modified with a series of Qx-SH reagents using a method adapted from ISO 22196. See, International Organization for Standardization. Measurement of antibacterial activity on plastics and other non porous surfaces (ISO 22196:2011), the disclosure of which is incorporated herein by reference in its entirety. Briefly, the samples were inoculated with same day cultures of select bacteria (e.g. E. coli, S. epidermidis) in dilute nutrient media (0.2% tryptic soy broth (TSB) in 1× phosphate buffered saline (PBS)) at approximately 150 colony-forming units (CFU)·mm^−2. Generally, 35 uL of 8.5×10^5 CFU/mL cultures were dispersed across the surface of the sample using sterile polypropylene cover films (area=198 mm^2). […] Following incubation, surviving cells were recovered from the samples using vigorous agitation (i.e. vortexing for 20 s in PBS). Surviving cells were enumerated via 10-fold series dilution and plating 100 μL onto tryptic soy agar (TSA), incubating overnight and then plate counting CFU. The mean CFU recovered per sample (CFU/sample) were calculated by accounting for dilutions. Internal controls samples of polypropylene and chlorhexidine treated with polypropylene were included in the assay.",
  "data": [
    {"smiles": "CCCCCCCC[N+](C)(C)CCCCCCCCOC(=O)CCS.[Cl-]", "note": "[Q8-SH]", "values": [
      {"measurement": "log reduction in E. coli compared to the negative control", "setting": "UV-treated samples", "value": 6, "unit": "log"},
      {"measurement": "reduction in E. coli compared to the negative control", "setting": "UV-treated samples", "value": 99.9999, "unit": "%"},
      {"measurement": "Mean CFU/Sample Recovered, E. coli", "setting": "UV-treated samples", "value": "0.00 ± 0.00", "unit": "CFU/Sample"},
      {"measurement": "log reduction in E. coli compared to the negative control", "setting": "phys. ads. samples", "value": 6, "unit": "log"},
      {"measurement": "reduction in E. coli compared to the negative control", "setting": "phys. ads. samples", "value": 99.9999, "unit": "%"},
      {"measurement": "Mean CFU/Sample Recovered, E. coli", "setting": "phys. ads. samples", "value": "0.00 ± 0.00", "unit": "CFU/Sample"}
    ]}
  ]
}
